Data published in patent US4686231A, “Inhibition of 5-lipoxygenase products” (SmithKline Beckman Corporation, priority 1986, dated 1987).

Key:
5-lipoxygenase [1] = target: T1, 5-lipoxygenase (Rattus norvegicus, UniProt P12527); test: 5-lipoxygenase activity: 5-HETE production by RBL-1 high speed supernatant; format: biochemical; conditions: RBL1 high speed supernatant; read-out: 5LO IC50 (5-HETE Production)
T1 construct: The activities of these enzymes in extracts of RBL-1 cells were assayed; host or cells: RBL-1 cells, supernatant of broken cell extract
T1 sequence (P12527 1-673): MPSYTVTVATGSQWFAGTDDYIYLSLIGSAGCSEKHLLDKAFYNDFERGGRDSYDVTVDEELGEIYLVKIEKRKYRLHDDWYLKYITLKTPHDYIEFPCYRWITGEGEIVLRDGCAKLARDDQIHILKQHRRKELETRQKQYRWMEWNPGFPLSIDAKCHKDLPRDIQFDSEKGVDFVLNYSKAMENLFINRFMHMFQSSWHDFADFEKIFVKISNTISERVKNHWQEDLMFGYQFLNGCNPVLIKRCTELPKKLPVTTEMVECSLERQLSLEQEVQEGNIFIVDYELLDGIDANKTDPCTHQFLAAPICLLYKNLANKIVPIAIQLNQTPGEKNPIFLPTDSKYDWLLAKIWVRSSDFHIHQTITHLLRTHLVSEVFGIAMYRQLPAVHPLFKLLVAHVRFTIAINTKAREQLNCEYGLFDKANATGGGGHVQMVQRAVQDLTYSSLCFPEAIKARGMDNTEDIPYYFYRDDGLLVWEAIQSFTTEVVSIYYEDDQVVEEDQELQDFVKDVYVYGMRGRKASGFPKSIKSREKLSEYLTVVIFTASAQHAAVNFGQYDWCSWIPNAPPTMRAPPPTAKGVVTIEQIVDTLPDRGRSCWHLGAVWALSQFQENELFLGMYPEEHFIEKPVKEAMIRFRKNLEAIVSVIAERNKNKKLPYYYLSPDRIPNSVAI
Protocol: (§1) For in vitro experiments, compounds were dissolved at appropriate concentrations in ethanol (final concentration μ1.0%) and then diluted to final concentrations using the buffers indicated in the text.
(§2) The activities of these enzymes in extracts of RBL-1 cells were assayed using the method of Jakschik and Lee, Nature, 287, 51-52 (1980). RBL-1 cells were obtained from the American Type Culture Collection (#CRL 1378) and were grown at 37° C. (5% CO2 in air) in spinner culture in MEM supplemented with 10% heat inactivated fetal calf serum. Harvested cells were washed with 50 mM sodium phosphate buffer, pH 7.0, containing 1 mM EDTA and 0.1% galatin, resuspended in fresh buffer (5×10^7 cells/ml) and disrupted by nitrogen cavitation using the Parr bomb at 750 psi for 10 min. The broken cell extract was then centrifuged at 10,000×g for 60 minutes (min). Aliquots (0.25 mls) of the supernatant were preincubated with or without drugs for 10 min, after which 10 μl CaCl2 (2 mM) of 2.5 mM arachidonic acid-1-^14 C (final concentration was […]; specific activity 20,000 dpm/nmole). After incubation for 5 min at […], the reaction was terminated by addition of 2 volumes (0.5 ml) ice cold acetone and the sample was allowed to deproteinize on ice for 10 min prior to centrifugation at 1,000×gfor 10 min. The deproteinized supernatant was adjusted to pH 3.5 with 2N formic acid and extracted with 2 volumes of ice cold ethyl acetate. The extracted samples were dried under argon, redissolved in ethyl acetate and applied to Whatman LK5D thin layer chromatography (TLC) plates which were developed using the A-9 solvent system [organic phase of ethyl acetate:2,2,5-trimethylpentane:acetic acid:water (110:50:20:10)] described by Hamberg and Samuelsson, J. Bio. Chem., 241, 257-263 (1966). Arachidonic acid, 5-HETE, LTB4 and PGD2 were quantified with a Berthold LB 2832 autoscanner.
(§3) Drug-induced effects on enzyme activities are described as the concentration of drug causing a 50% inhibition of metabolite synthesis (IC50).

[2] = tested on: Arachidonic acid-induced ear swelling; test: Arachidonic acid-induced mouse ear inflammation (ear swelling); format: in vivo, male Balb/c mice; conditions: for antiinflammatory activity (mouse ear edema): p.o.
Protocol: In the following Examples male Balb/c mice (20-28 g) were used. All mice were obtained from Charles River Breeding Laboratories, Kingston, N.Y. Within a single experiment, mice were sex and age matched.
The compounds of Formula (I), indomethacin, naproxen, and ibuprofen were each used as the free base. The compounds were homogenized in 0.5% tagacanth. Compounds were administered by gavage at the indicated dose in a final volume of 10 ml/kg. The compounds of Formula (I) were solubilized in dimethylacetamide and diluted with olive oil for subcantaneous administration.
Arachidonic acid in acetone (2 mg/20 μl) was applied to the inner surface of the left ear. The thickness of both ears was then measured with a dial micrometer one hour after treatment, and the […] were expressed as the change in thickness (10^-3 cm) between treated and untreated ears.
Test compounds were given orally in 0.5% tragacanth at the times indicated in the text prior to the topical application of arachidonic acid.
Parenteral administration of compound was accomplished by subcutaneous injection of solution as indicated.

5-lipoxygenase [3] = target: T1, 5-lipoxygenase; test: 5-lipoxygenase activity: LTB4 production by RBL-1 high speed supernatant; format: biochemical; conditions: for IC50: RBL1 high speed supernatant, read-out: 5LO IC50 (LTB4 Production)
Protocol: as §1, §2, §3

[4] = tested on: Arachidonic acid-induced ear swelling; test: Arachidonic acid-induced mouse ear inflammation (ear swelling); format: in vivo, male Balb/c mice
psoriasis = conditions: in vivo; cited from earlier work
lipoxygenase = conditions: in vitro; cited from earlier work
[5] = tested on: area of infarction following coronary occlusion; conditions: dogs; cited from earlier work
[6] = tested on: LTC4 production by human monocytes; test: LTC4 production by human monocytes; format: cell-based; conditions: Monocyte, A23187-stimulated, 3 hours, drug added 30 minutes prior
Protocol: as §1
One of the compounds of Formula (I), i.e., Compound Number 8 from Table 1, was evaluated for its ability to inhibit the production of LTC4 by human monocytes according to the following protocol.
Human monocytes were prepared from whole blood supplied by the American Red Cross. The blood was fractionated by a two-step procedure employing sedimentation on Ficoll followed by sedimentation on Percoll. The mononuclear cell fraction recovered was composed of 80-90% monocytes with the remainder of the cells being predominant lymphocytes. The monocytes were plated at 1×10^6 cells per well in a Costar 24 well tissue culture plat and allowed to adhere for one hour at 37° C. Non-adherent cells were removed by washing. The cells were stimulated with […] of A23187 calcium ionophore for 3 hours at 37° C. to induce LTC-4 produced when drugs were evaluated. They were added to the cells 30 minutes prior to the A23187. Supernatants were collected, clarified by centrifugation and store frozed at -20° C. until assay. The LTC-4 content was determined by using a New England Nuclear Leukotriene C-4 (^3 H) RIA Kit as per instructions.

rheumatoid arthritis = conditions: preliminary observation; cited from earlier work
[7] = tested on: LTB4 and 5-HETE production; conditions: in vitro; cited from earlier work
[8] = 50 mg/kg s.c. or i.p., 2 mg arachidonic acid, 1 hour, * p .05, ** p .01, *** p .001

| IC50 (5-lipoxygenase [1]) [µM] | IC50 (5-lipoxygenase [3]) [µM] | Structure (SMILES) | % Inhibition of Ear Swelling [2, 8] [%] | other results |
| --- | --- | --- | --- | --- |
| 13 | 13 | COc1ccc(-c2nc(SC)n(C)c2-c2ccc(OC)cc2)cc1 [Compound 1] | 51 | – |
| – | – | COc1ccc2c(c1)c(CC(=O)O)c(C)n2C(=O)c1ccc(Cl)cc1 [indomethacin, reference compound] | – | reduction of cell infiltration (mouse ear model) [4]: did not reduce inflammation or cell infiltration; antiinflammatory activity (mouse ear edema) ([2]; 10 mg/kg): did not exhibit detectable antiinflammatory activity; reduction of inflammation (mouse ear model) ([2]; arachidonic acid-induced): did not reduce inflammation or cell infiltration; inhibition of 5-lipoxygenase products (RBL-1 extract) (5-lipoxygenase [3]; concentrations up to 10^-4 M): inactive |
| 3.1 | 1.5 | COc1ccc(-c2nc(NC#N)[nH]c2-c2ccc(OC)cc2)cc1 [Compound 4, 4,5-Bis(4-methoxyphenyl)-2-cyanamido-imidazole or 4,5-Bis(4-methoxyphenyl)-2-amino-1-cyano-imidazole] | 46 | – |
| 16 | 6.6 | O=S(=O)(c1nc(-c2ccc(F)cc2)c(-c2ccc(F)cc2)[nH]1)C(F)(F)C(F)F [Compound 2] | 41 | – |
| – | – | CC(C(=O)O)c1ccc2oc(-c3ccc(Cl)cc3)nc2c1 (centres unmarked) [benoxaprofen] | – | effect on psoriasis (psoriasis): promising effect; lipoxygenase inhibitory activity (lipoxygenase): in vitro lipoxygenase inhibitory activity |
| – | – | NC1=NN(c2cccc(C(F)(F)F)c2)CC1 [BW755-C] | – | area of infarction following coronary occlusion [5]: reduced |
| – | – | CC(C)Cc1ccc(C(C)C(=O)O)cc1 (centres unmarked) [ibuprofen, reference compound] | – | antiinflammatory activity (mouse ear edema) ([2]; 250 mg/kg): did not exhibit detectable antiinflammatory activity |
| 95 | – | Fc1ccc(-c2[nH]c(SC(F)(F)C(F)F)nc2-c2ccncc2)cc1 [Compound 9] | – | – |
| 8 | 1 | N#CNc1nc(-c2ccc(F)cc2)c(-c2ccc(F)cc2)[nH]1 [Compound 5, 4,5-Bis(4-fluorophenyl)-2-cyanamido-imidazole or 4,5-Bis(4-fluorophenyl)-2-amino-1-cyano-imidazole] | 59 | – |
| 17 | 1.5 | Fc1ccc(-c2[nH]c(S)nc2-c2ccncc2)cc1 [Compound 8] | – | IC50 [6]: 0.8 µM |
| – | – | COc1ccc2cc([C@H](C)C(=O)O)ccc2c1 [naproxen, reference compound] | – | antiinflammatory activity (mouse ear edema) ([2]; 100 mg/kg): did not exhibit detectable antiinflammatory activity |
| – | – | O=C(O)c1cc(/N=N/c2ccc(S(=O)(=O)Nc3ccccn3)cc2)ccc1O [sulfasalazine] | – | efficacy in rheumatoid arthritic patients (rheumatoid arthritis): efficacy, including remission; inhibition of LTB4 and 5-HETE production [7]: inhibit LTB4 and 5-HETE production in vitro |
| 0.7 | 1.1 | COc1ccc(-c2nc(C(F)(F)F)[nH]c2-c2ccc(OC)cc2)cc1 [Compound 6] | – | % Inhibition of Ear Swelling ([2]; 50 mg/kg, oral dosing (p.o.), ** p .01): 28% |
| 10.4 | 8.4 | CCSc1nc(-c2ccc(OC)cc2)c(-c2ccc(OC)cc2)n1CC [Compound 3] | – | – |
| 10 | 10 | Fc1ccc(-c2nc(-c3ccc(F)cc3)c(-c3ccc(F)cc3)[nH]2)cc1 [Compound 7] | 15 | – |
